Columns and labels:
ERβ = ERβ (Homo sapiens, UniProt Q92731); experiment: Binding of the peptide probes to ERβ in the presence of modulators (Table 15b)
androgen receptor = target: T1, androgen receptor (Homo sapiens, UniProt P10275); experiment: Yeast two-hybrid screening of unbiased X15 peptide library, ligand induced β-galactosidase activity (FIG. 3, Table 503); format: cell-based; design: expressed in transfected cells; host or cells: Saccharomyces cerevisiae PJ69-4α; ligand induced β-galactosidase activity, No Lig / ligand induced β-galactosidase activity, DHT / ligand induced β-galactosidase activity, CPA / ligand induced β-galactosidase activity, RU / ligand induced β-galactosidase activity, Test / ligand induced β-galactosidase activity, MPA: unit not given here
T1 sequence (P10275 1-920): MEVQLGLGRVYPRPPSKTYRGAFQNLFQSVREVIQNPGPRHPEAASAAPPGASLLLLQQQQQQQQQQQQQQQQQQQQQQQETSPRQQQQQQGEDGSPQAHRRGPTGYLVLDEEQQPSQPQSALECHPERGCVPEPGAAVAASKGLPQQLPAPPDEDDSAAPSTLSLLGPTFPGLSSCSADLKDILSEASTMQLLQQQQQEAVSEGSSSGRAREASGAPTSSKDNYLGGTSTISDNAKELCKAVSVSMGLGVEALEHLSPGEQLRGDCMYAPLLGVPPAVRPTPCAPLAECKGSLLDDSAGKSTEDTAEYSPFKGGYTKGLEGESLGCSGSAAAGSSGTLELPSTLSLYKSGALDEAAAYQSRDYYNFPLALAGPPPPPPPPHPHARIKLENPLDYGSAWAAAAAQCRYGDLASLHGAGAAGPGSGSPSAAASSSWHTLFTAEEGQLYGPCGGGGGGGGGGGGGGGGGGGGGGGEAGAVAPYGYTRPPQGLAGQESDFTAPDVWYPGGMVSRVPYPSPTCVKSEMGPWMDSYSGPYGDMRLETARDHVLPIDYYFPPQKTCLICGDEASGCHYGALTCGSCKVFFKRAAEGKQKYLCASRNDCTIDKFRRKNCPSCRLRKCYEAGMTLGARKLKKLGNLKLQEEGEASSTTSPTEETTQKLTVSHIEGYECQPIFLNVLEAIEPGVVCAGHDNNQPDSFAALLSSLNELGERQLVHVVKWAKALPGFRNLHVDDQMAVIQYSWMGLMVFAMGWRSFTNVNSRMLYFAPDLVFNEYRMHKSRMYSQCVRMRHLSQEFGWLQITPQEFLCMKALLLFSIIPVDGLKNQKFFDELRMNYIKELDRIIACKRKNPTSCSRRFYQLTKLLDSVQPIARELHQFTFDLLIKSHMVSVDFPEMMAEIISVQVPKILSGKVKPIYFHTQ
From the text: Our library contained predominantly 15 random amino acid residues/peptide in order to identify motifs that might interact with nuclear receptor domains. If ligand is provided to the cells, one can screen for peptides that interact with the ligand-bound receptor. […] Included at the ends of the oligonucleotide were the synthetic restriction endonuclease cleavage sites, EcoRI or Mfe I (5′ end) and Sal I (3′ end). Oligonucleotides were annealed, then cleaved with excess restriction endonuclease and purified on agarose gels. The purified set of oligonucleotides was subcloned as an in-frame carboxy-terminal fusion to a Gal4 DNA binding domain (plasmid vector pMA424 derivative). […] The transformation mix was divided and grown on plates of selective media containing ligand and 25 mM 3-aminotriazole at 30° C. until colonies appeared in 3-7 days. […] Dihydrotestosterone (DHT) and medroxyprogesterone (MPA) were added to the media at 100 nM to identify peptides that interact with the receptor in the presence of ligand. After colonies appeared they were picked and dispersed into individual wells of a 96-well plate containing rich media (YPD).
To determine ligand dependence, two microliter aliquots were removed from the cell suspension, and arrayed and spotted onto each of two rectangular agar plates, one with 100 nM ligand and one without ligand. Growth was monitored daily.
A secondary test of ligand dependent activation was performed using the integrated GAL4-driven lacZ gene. Cell suspensions of the initial positive clones were diluted 20-fold into 20 microliters of rich media in a microplate and grown overnight at 30° C. in the presence and absence of ligand. Microplates were centrifuged for 5 minutes at 3000 rpm in a swinging table top centrifuge to pellet the yeast cells, and the overlying media was aspirated. […] An OD650 density determination was made to normalize the β-galactosidase activity. β-galactosidase activity was monitored following the addition of buffer containing chlorophenol red-β-galactopyranoside (CPRG) (Boehringer Mannheim) substrate at a final concentration of 0.5 mM. […] The maximum slope value of this measurement was normalized to cell density from the initial OD650 value, and the relative ligand dependence of β-galactosidase was determined by comparing the values plus and minus ligand.
In FIG. 3, all of these ligands were tested. The plasmids from true positives were extracted using standard yeast extraction protocols and re-transformed to verify the positive phenotype.

Chain of ERβ (Q92731 whole entry, species assumed): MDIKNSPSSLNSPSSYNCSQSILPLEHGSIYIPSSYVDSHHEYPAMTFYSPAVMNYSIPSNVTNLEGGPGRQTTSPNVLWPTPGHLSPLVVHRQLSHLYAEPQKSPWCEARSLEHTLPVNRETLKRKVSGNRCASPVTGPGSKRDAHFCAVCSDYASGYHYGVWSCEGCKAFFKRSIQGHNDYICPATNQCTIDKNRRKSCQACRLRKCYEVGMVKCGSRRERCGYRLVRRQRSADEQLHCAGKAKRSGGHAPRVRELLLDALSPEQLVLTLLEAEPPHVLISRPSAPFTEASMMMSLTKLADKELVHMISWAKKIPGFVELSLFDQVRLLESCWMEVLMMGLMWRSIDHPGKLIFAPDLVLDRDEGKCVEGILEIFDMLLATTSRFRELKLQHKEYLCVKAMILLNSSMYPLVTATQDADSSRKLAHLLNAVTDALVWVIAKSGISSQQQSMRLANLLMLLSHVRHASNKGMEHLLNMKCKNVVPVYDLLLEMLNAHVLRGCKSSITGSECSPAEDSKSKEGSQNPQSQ

Compound	Equiv. (equivalency), peptide probe α/βI on ERβ (ERβ; probe α/βI, positive: % of maximum stimulation by the modulator used to isolate the probe, negative: % of reduction by ICI 182,780) [%]	Equiv. (equivalency), peptide probe α/βIII on ERβ (ERβ) [%]	Equiv. (equivalency), peptide probe α/βIV on ERβ (ERβ) [%]	Equiv. (equivalency), peptide probe α/βV on ERβ (ERβ) [%]	Equiv. (equivalency), peptide probe βI on ERβ (ERβ) [%]	Equiv. (equivalency), peptide probe βIII on ERβ (ERβ) [%]	ligand induced β-galactosidase activity, CPA (androgen receptor; yeast two-hybrid)	ligand induced β-galactosidase activity, DHT (androgen receptor; yeast two-hybrid)	ligand induced β-galactosidase activity, MPA (androgen receptor; yeast two-hybrid, ligand MPA)	ligand induced β-galactosidase activity, RU (androgen receptor; yeast two-hybrid)	ligand induced β-galactosidase activity, Test (androgen receptor; yeast two-hybrid, ligand Test)	ligand induced β-galactosidase activity, No Lig (androgen receptor; yeast two-hybrid)	Fold induction (androgen receptor; untitled table before Table 503, values match DHT / No Lig of Table 503)
EFVNWDAVVPWSELVALLDLOPS [B8A10]							0.3955	0.6163		0.4		0.8753	1
EFPELLAMTRWGRHAALLEPQRLPPPRTTTQPQTEFERMFFFTRPMRTTGLLDLQPS [B2A7]							0.2919	1.719		0.5		0.3711	

Now from value to compound:

Equiv. (equivalency), peptide probe α/βI on ERβ (ERβ; probe α/βI, positive: % of maximum stimulation by the modulator used to isolate the probe, negative: % of reduction by ICI 182,780) [%]	Equiv. (equivalency), peptide probe α/βIII on ERβ (ERβ) [%]	Equiv. (equivalency), peptide probe α/βIV on ERβ (ERβ) [%]	Equiv. (equivalency), peptide probe α/βV on ERβ (ERβ) [%]	Equiv. (equivalency), peptide probe βI on ERβ (ERβ) [%]	Equiv. (equivalency), peptide probe βIII on ERβ (ERβ) [%]	ligand induced β-galactosidase activity, CPA (androgen receptor; yeast two-hybrid)	ligand induced β-galactosidase activity, DHT (androgen receptor; yeast two-hybrid)	ligand induced β-galactosidase activity, MPA (androgen receptor; yeast two-hybrid, ligand MPA)	ligand induced β-galactosidase activity, RU (androgen receptor; yeast two-hybrid)	ligand induced β-galactosidase activity, Test (androgen receptor; yeast two-hybrid, ligand Test)	ligand induced β-galactosidase activity, No Lig (androgen receptor; yeast two-hybrid)	Fold induction (androgen receptor; untitled table before Table 503, values match DHT / No Lig of Table 503)	Compound
81	−57	−75	0	−96	77								C[C@]12CC[C@@H]3c4ccc(O)cc4CC[C@H]3[C@@H]1C[C@@H](O)[C@@H]2O [Estriol]
						−0.03955	0.3948	1.698	0.1	0.1337	0		EFRFPFHEMVREWESMGLERVRYAEP [M4D1]
	34	0	13	−62	−61								CCN(CC)CCOc1ccc(C(=C(Cl)c2ccccc2)c2ccccc2)cc1 [Clomiphene]

From patent US20030224390A1, “Method of identifying conformation-sensitive binding peptides and uses thereof” (Karo Bio AB, priority 2000, published 2003)
